Molecular target: sortase A (SrtA) (Staphylococcus aureus, UniProt Q2FV99)
Assay: HPLC transpeptidation assay, time-dependent inactivation kinetics
Format: biochemical
Conditions: read-out: KI

Chain of sortase A (SrtA) (Q2FV99 25-206): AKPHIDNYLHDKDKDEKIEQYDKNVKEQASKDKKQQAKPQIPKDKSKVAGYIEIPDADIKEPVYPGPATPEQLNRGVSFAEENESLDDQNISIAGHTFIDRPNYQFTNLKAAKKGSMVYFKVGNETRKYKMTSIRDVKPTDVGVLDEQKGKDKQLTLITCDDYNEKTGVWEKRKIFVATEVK

Structure (SMILES): OCl [NaOCl]
- KI (inactivation): 11.8 ± 3.1 mM

Reference: publication PMC3604699 (Biochemistry, 2011)
